Data reported in article PMC8071274 (International Journal of Molecular Sciences, 2021).
Where a SMILES comes first, the peptide text is derived from it. The star is where a group is joined. For = O=C*

Each compound was assayed on differentiated HL-60 cells. Details: 72 h.
Type: cell-based, human
Protocol: HEK-293 cells (American Type Culture Collection, Manassas, VA, USA) were maintained in DMEM (Thermo Fisher Scientific, Waltham, MA, USA) containing 10% FBS (Thermo Fisher Scientific) in a humidified atmosphere at 5% CO2 and 37 °C. Human acute leukemia-derived HL-60 cells (RIKEN Cell Bank, Ibaraki, Japan) were cultured in RPMI-1640 medium (Thermo Fisher Scientific) containing 10% FBS in a humidified atmosphere at 5% CO2 and 37 °C. HL-60 cells were treated with 500 μM dibutyryl-cAMP (Sigma-Aldrich, St. Louis, MO, USA) for 72 h to differentiate the cells into neutrophilic/granulocytic cells as described elsewhere. The ability of MCT-2-related peptides to activate HL-60 cells differentiated into neutrophilic/granulocytic cells was evaluated by stimulation of β-hexosaminidase secretion from the cells. Briefly, differentiated HL-60 cells were washed 3 times with ice-cold HEPES-buffered Hank’s solution (HBHS; 10 mM HEPES, 136.9 mM NaCl, 5.4 mM KCl, 1.2 mM CaCl2, 0.44 mM KH2PO4, 0.49 mM MgCl2, 0.41 mM MgSO4, 0.34 mM Na2HPO4, 5.5 mM glucose, 4.2 mM NaHCO3, and 0.1% BSA, pH 7.4). The cells were resuspended in HBHS at a density of 5.6 × 10^6 cells/mL, and DNase I (Sigma-Aldrich) and cytochalasin B (Sigma-Aldrich) were each added at a final concentration of 5 μg/mL. The cell suspension in each tube (5.0 × 10^5 cells/90 μL) was preincubated at 37 °C for 10 min and stimulated with 10 μL synthetic peptide solution at 37 °C for 10 min. The inhibitory effects of inhibitors against FPR1 [CysH (Sigma-Aldrich)] and FPR2 [PBP10 (Tocris Bioscience, Bristol, UK)] on β-hexosaminidase release induced by MCT-2 and its derivatives were also evaluated in the differentiated HL-60 cells; each cell suspension prepared as above (90 μL) was transferred to a tube (5.0 × 10^5 cells/tube) with 5 μL inhibitor solution for FPR1 (CysH) or FPR2 (PBP10). Each tube was then preincubated at 37 °C for 10 min and stimulated with 5 μL synthetic peptide solution at 37 °C for 10 min. After stimulation, 200 μL ice-cold reaction quenching buffer (25 mM Tris, 123 mM NaCl, and 2.7 mM KCl, pH 7.4) was added to each cell suspension to stop the reaction. Thereafter, these tubes were centrifuged at 4 °C and 2300× g for 1 min, and each supernatant was transferred into a new tube. β-Hexosaminidase activity in the supernatant was measured as described previously. Briefly, 90 μL supernatant was transferred to each well of a 96-well microtiter plate, and 60 μL of a substrate solution for β-hexosaminidase [10 mM p-nitrophenyl N-acetyl-β-D-glucosaminide (Sigma-Aldrich), 40 mM citrate, and 70 mM NaHPO4, pH 4.5] was added to initiate the enzyme reaction. After incubation of the plate at 37 °C for 1 h, 100 μL of 400 mM glycine (pH 10.7) was added to stop the reaction. The absorbance at 415 nm for the resulting p-nitrophenol and at 490 nm for the reference was measured using a microtiter plate reader (Viento XS; BioTek Instruments, Winooski, VT, USA). The ability of each peptide to induce β-hexosaminidase release was expressed as a percentage of enzyme secretion promoted by 10 μM MCT-2(1–15) that induced the maximum response for the elucidation of full or partial agonists to the activity of MCT-2(1–15) (Figure 2 and Figure 4, Table 2) or a percentage of the total enzyme activity, which was the enzyme activity released after disruption of the cells with 0.05% Triton X-100 (Figure 3).

Row | Compound | EC50
1 | CSCC[C@H](NC=O)C(=O)N[C@H](C(=O)N1CCC[C@H]1C(=O)N[C@@H](CCSC)C(=O)N[C@@H](CCCNC(=N)N)C(=O)O)[C@@H](C)O [MCT-2(1–5)] (For-MTPMR-OH) | 26000 nM
2 | CC[C@H](C)[C@H](NC(=O)[C@H](CC(C)C)NC(=O)[C@H](CCCCN)NC(=O)[C@H](CCSC)NC(=O)[C@H](CC(C)C)NC(=O)[C@@H]1CCCN1C(=O)[C@H](CC(N)=O)NC(=O)[C@@H](NC(=O)[C@H](CCCCN)NC(=O)[C@H](CCCNC(=N)N)NC(=O)[C@H](CCSC)NC(=O)[C@H](C)NC(=O)[C@@H](NC(=O)[C@H](CCSC)NC=O)[C@@H](C)O)[C@@H](C)CC)C(=O)N[C@@H](CC(N)=O)C(=O)O [[Ala^3]MCT-2] (For-MTAMRKINPLMKLIN-OH) | 16.3 ± 0.29 nM
3 | CC[C@H](C)[C@H](NC(=O)[C@H](C)NC(=O)[C@H](CCCNC(=N)N)NC(=O)[C@H](CCSC)NC(=O)[C@@H]1CCCN1C(=O)[C@@H](NC(=O)[C@H](CCSC)NC=O)[C@@H](C)O)C(=O)N[C@@H](CC(N)=O)C(=O)N1CCC[C@H]1C(=O)N[C@@H](CC(C)C)C(=O)N[C@@H](CCSC)C(=O)N[C@@H](CCCCN)C(=O)N[C@@H](CC(C)C)C(=O)N[C@H](C(=O)N[C@@H](CC(N)=O)C(=O)O)[C@@H](C)CC [[Ala^6]MCT-2] (For-MTPMRAINPLMKLIN-OH) | 64 ± 3 nM
4 | CC[C@H](C)[C@H](NC(=O)[C@H](CC(C)C)NC(=O)[C@H](CCCCN)NC(=O)[C@H](CCSC)NC(=O)[C@H](CC(C)C)NC(=O)[C@@H]1CCCN1C(=O)[C@H](CC(N)=O)NC(=O)[C@@H](NC(=O)[C@H](CCCCN)NC(=O)[C@H](CCCNC(=N)N)NC(=O)[C@H](CCSC)NC(=O)[C@@H]1CCCN1C(=O)[C@@H](NC(=O)[C@H](CCSC)NC=O)[C@@H](C)O)[C@@H](C)CC)C(=O)O [MCT-2(1–14)] (For-MTPMRKINPLMKLI-OH) | 96.7 ± 17.6 nM
5 | CC[C@H](C)[C@H](NC(=O)[C@H](CCCCN)NC(=O)[C@H](CCCNC(=N)N)NC(=O)[C@H](CCSC)NC(=O)[C@@H]1CCCN1C(=O)[C@@H](NC(=O)[C@H](CCSC)NC=O)[C@@H](C)O)C(=O)N[C@@H](C)C(=O)N1CCC[C@H]1C(=O)N[C@@H](CC(C)C)C(=O)N[C@@H](CCSC)C(=O)N[C@@H](CCCCN)C(=O)N[C@@H](CC(C)C)C(=O)N[C@H](C(=O)N[C@@H](CC(N)=O)C(=O)O)[C@@H](C)CC [[Ala^8]MCT-2] (For-MTPMRKIAPLMKLIN-OH) | 31 ± 3.97 nM
6 | CC[C@H](C)[C@H](NC(=O)[C@H](CC(C)C)NC(=O)[C@H](CCCCN)NC(=O)[C@H](CCSC)NC(=O)[C@H](CC(C)C)NC(=O)[C@@H]1CCCN1C(=O)[C@H](CC(N)=O)NC(=O)[C@@H](NC(=O)[C@H](CCCCN)NC(=O)[C@H](C)NC(=O)[C@H](CCSC)NC(=O)[C@@H]1CCCN1C(=O)[C@@H](NC(=O)[C@H](CCSC)NC=O)[C@@H](C)O)[C@@H](C)CC)C(=O)N[C@@H](CC(N)=O)C(=O)O [[Ala^5]MCT-2] (For-MTPMAKINPLMKLIN-OH) | 61.3 ± 0.58 nM
7 | CC[C@H](C)[C@H](NC(=O)[C@H](CCCCN)NC(=O)[C@H](CCCNC(=N)N)NC(=O)[C@H](CCSC)NC(=O)[C@@H]1CCCN1C(=O)[C@@H](NC(=O)[C@H](CCSC)NC=O)[C@@H](C)O)C(=O)O [MCT-2(1–7)] (For-MTPMRKI-OH) | 35500 nM
8 | CC[C@H](C)[C@H](NC(=O)[C@H](CCCCN)NC(=O)[C@H](CCCNC(=N)N)NC(=O)[C@H](CCSC)NC(=O)[C@@H]1CCCN1C(=O)[C@@H](NC(=O)[C@H](CCSC)NC=O)[C@@H](C)O)C(=O)N[C@@H](CC(N)=O)C(=O)N1CCC[C@H]1C(=O)O [MCT-2(1–9)] (For-MTPMRKINP-OH) | 10800 nM

Now from value to compound:

Row | EC50 | Compound
9 | > 10000 nM | CC[C@H](C)[C@H](NC(=O)[C@H](CC(C)C)NC(=O)[C@H](CCCCN)NC(=O)[C@H](CCSC)NC(=O)[C@H](CC(C)C)NC(=O)[C@@H]1CCCN1C(=O)[C@H](CC(N)=O)NC(=O)[C@@H](NC(=O)[C@H](CCCCN)NC(=O)[C@H](CCCNC(=N)N)NC(=O)[C@H](CCSC)NC(=O)[C@@H]1CCCN1C(=O)[C@@H](NC(=O)[C@H](C)NC=O)[C@@H](C)O)[C@@H](C)CC)C(=O)N[C@@H](CC(N)=O)C(=O)O [[Ala^1]MCT-2] (For-ATPMRKINPLMKLIN-OH)
10 | 68 ± 2.65 nM | CC[C@H](C)[C@H](NC(=O)[C@H](CC(C)C)NC(=O)[C@H](CCCCN)NC(=O)[C@H](CCSC)NC(=O)[C@H](CC(C)C)NC(=O)[C@@H]1CCCN1C(=O)[C@H](CC(N)=O)NC(=O)[C@@H](NC(=O)[C@H](CCCCN)NC(=O)[C@H](CCCNC(=N)N)NC(=O)[C@H](C)NC(=O)[C@@H]1CCCN1C(=O)[C@@H](NC(=O)[C@H](CCSC)NC=O)[C@@H](C)O)[C@@H](C)CC)C(=O)N[C@@H](CC(N)=O)C(=O)O [[Ala^4]MCT-2] (For-MTPARKINPLMKLIN-OH)
11 | 73 ± 13.3 nM | CC[C@H](C)[C@H](NC(=O)[C@H](CC(C)C)NC(=O)[C@H](CCCCN)NC(=O)[C@H](CCSC)NC(=O)[C@H](C)NC(=O)[C@@H]1CCCN1C(=O)[C@H](CC(N)=O)NC(=O)[C@@H](NC(=O)[C@H](CCCCN)NC(=O)[C@H](CCCNC(=N)N)NC(=O)[C@H](CCSC)NC(=O)[C@@H]1CCCN1C(=O)[C@@H](NC(=O)[C@H](CCSC)NC=O)[C@@H](C)O)[C@@H](C)CC)C(=O)N[C@@H](CC(N)=O)C(=O)O [[Ala^10]MCT-2] (For-MTPMRKINPAMKLIN-OH)
12 | 83.7 ± 3.54 nM | CC[C@H](C)[C@H](NC(=O)[C@H](C)NC(=O)[C@H](CCCCN)NC(=O)[C@H](CCSC)NC(=O)[C@H](CC(C)C)NC(=O)[C@@H]1CCCN1C(=O)[C@H](CC(N)=O)NC(=O)[C@@H](NC(=O)[C@H](CCCCN)NC(=O)[C@H](CCCNC(=N)N)NC(=O)[C@H](CCSC)NC(=O)[C@@H]1CCCN1C(=O)[C@@H](NC(=O)[C@H](CCSC)NC=O)[C@@H](C)O)[C@@H](C)CC)C(=O)N[C@@H](CC(N)=O)C(=O)O [[Ala^13]MCT-2] (For-MTPMRKINPLMKAIN-OH)
13 | 76.7 ± 11.9 nM | CC[C@H](C)[C@H](NC(=O)[C@H](CCCCN)NC(=O)[C@H](CCCNC(=N)N)NC(=O)[C@H](CCSC)NC(=O)[C@@H]1CCCN1C(=O)[C@@H](NC(=O)[C@H](CCSC)NC=O)[C@@H](C)O)C(=O)N[C@@H](CC(N)=O)C(=O)N1CCC[C@H]1C(=O)N[C@@H](CC(C)C)C(=O)N[C@@H](CCSC)C(=O)N[C@@H](CCCCN)C(=O)N[C@@H](CC(C)C)C(=O)N[C@@H](C)C(=O)N[C@@H](CC(N)=O)C(=O)O [[Ala^14]MCT-2] (For-MTPMRKINPLMKLAN-OH)
14 | 94.7 ± 3.21 nM | CC[C@H](C)[C@H](NC(=O)[C@H](CC(C)C)NC(=O)[C@H](CCCCN)NC(=O)[C@H](CCSC)NC(=O)[C@H](CC(C)C)NC(=O)[C@@H]1CCCN1C(=O)[C@H](CC(N)=O)NC(=O)[C@H](C)NC(=O)[C@H](CCCCN)NC(=O)[C@H](CCCNC(=N)N)NC(=O)[C@H](CCSC)NC(=O)[C@@H]1CCCN1C(=O)[C@@H](NC(=O)[C@H](CCSC)NC=O)[C@@H](C)O)C(=O)N[C@@H](CC(N)=O)C(=O)O [[Ala^7]MCT-2] (For-MTPMRKANPLMKLIN-OH)
15 | 0.61 ± 0.07 nM | CC[C@H](C)[C@H](NC(=O)[C@H](CC(C)C)NC(=O)[C@H](CCCCN)NC(=O)[C@H](CCSC)NC(=O)[C@H](CC(C)C)NC(=O)[C@@H]1CCCN1C(=O)[C@H](CC(N)=O)NC(=O)[C@@H](NC(=O)[C@H](CCCCN)NC(=O)[C@H](CCCNC(=N)N)NC(=O)[C@H](CCSC)NC(=O)[C@@H]1CCCN1C(=O)[C@H](C)NC(=O)[C@H](CCSC)NC=O)[C@@H](C)CC)C(=O)N[C@@H](CC(N)=O)C(=O)O [[Ala^2]MCT-2] (For-MAPMRKINPLMKLIN-OH)
16 | 36.7 ± 11 nM | CC[C@H](C)[C@H](NC(=O)[C@H](CC(C)C)NC(=O)[C@H](CCCCN)NC(=O)[C@H](C)NC(=O)[C@H](CC(C)C)NC(=O)[C@@H]1CCCN1C(=O)[C@H](CC(N)=O)NC(=O)[C@@H](NC(=O)[C@H](CCCCN)NC(=O)[C@H](CCCNC(=N)N)NC(=O)[C@H](CCSC)NC(=O)[C@@H]1CCCN1C(=O)[C@@H](NC(=O)[C@H](CCSC)NC=O)[C@@H](C)O)[C@@H](C)CC)C(=O)N[C@@H](CC(N)=O)C(=O)O [[Ala^11]MCT-2] (For-MTPMRKINPLAKLIN-OH)
